Experimental findings from ChEMBL document CHEMBL4177534, “Discovery and evaluation of 1H-pyrrolo[2,3-b]pyridine based selective and reversible small molecule BTK inhibitors for the treatment of rheumatoid arthritis” (Bioorg Med Chem Lett, 2017) are described below.

Structures are written as SMILES.

Data set [1] concerns the target Tyrosine-protein kinase BTK (Homo sapiens, UniProt Q06187). Nature of the data set: Inhibition of recombinant human full length BTK preincubated for 10 mins followed by Tk-biotin peptide substrate addition after 90 mins by TR-FRET assay. (In general: TR-FRET usually uses a lanthanide donor and a delayed reading to cut background.)
The target of data set [2] is Tyrosine-protein kinase BTK (Mus musculus, UniProt P35991). Nature of the data set: Inhibition of C57BL/6J mouse BTK assessed as decrease in anti-mouse IgM antibody stimulated BCR mediated CD69 upregulation preincubated for 30 mins followed by antibody challenge after 18 to 24 hrs by flow cytometry. A general note: A flow cytometer gives signals particle by particle.
Sequence of Tyrosine-protein kinase BTK (Mus musculus, UniProt P35991) (P35991 whole entry): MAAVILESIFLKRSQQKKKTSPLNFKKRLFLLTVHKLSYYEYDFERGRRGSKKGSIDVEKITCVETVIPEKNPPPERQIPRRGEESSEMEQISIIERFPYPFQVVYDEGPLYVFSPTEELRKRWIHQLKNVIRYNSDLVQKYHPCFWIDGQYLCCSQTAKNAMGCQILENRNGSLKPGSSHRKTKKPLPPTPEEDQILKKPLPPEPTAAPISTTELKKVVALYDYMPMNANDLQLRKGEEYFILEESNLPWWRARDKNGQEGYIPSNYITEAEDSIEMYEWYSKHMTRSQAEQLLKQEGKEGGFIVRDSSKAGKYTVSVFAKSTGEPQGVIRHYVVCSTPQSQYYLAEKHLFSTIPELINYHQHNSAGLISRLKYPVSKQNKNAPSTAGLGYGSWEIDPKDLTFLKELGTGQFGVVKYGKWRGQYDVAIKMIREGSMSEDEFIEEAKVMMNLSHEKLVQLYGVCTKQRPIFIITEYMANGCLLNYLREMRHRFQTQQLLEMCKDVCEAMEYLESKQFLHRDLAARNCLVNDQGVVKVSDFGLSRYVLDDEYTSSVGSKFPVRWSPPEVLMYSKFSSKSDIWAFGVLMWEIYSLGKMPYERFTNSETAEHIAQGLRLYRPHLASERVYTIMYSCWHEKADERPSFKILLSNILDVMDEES

The nature of data set [3]: Metabolic stability in mouse liver microsomes assessed as metabolism rate. It is filed as ADME, microsome. Background: Microsomes from liver hold many membrane-bound enzymes, among them those of drug oxidation.
Data set [4] is described as follows: Metabolic stability in rat liver microsomes assessed as metabolism rate. It is filed as ADME, microsome.
A short description of data set [5]: Metabolic stability in human liver microsomes assessed as metabolism rate. It is filed as ADME, microsome.
The nature of data set [6]: Equilibrium aqueous solubility of the compound at pH 4. It is filed as physicochemical.
Data set [7] is described as follows: Equilibrium aqueous solubility of the compound at pH 7.4. The format is physicochemical.

Sequence of Tyrosine-protein kinase BTK (Homo sapiens, UniProt Q06187) (Q06187 whole entry): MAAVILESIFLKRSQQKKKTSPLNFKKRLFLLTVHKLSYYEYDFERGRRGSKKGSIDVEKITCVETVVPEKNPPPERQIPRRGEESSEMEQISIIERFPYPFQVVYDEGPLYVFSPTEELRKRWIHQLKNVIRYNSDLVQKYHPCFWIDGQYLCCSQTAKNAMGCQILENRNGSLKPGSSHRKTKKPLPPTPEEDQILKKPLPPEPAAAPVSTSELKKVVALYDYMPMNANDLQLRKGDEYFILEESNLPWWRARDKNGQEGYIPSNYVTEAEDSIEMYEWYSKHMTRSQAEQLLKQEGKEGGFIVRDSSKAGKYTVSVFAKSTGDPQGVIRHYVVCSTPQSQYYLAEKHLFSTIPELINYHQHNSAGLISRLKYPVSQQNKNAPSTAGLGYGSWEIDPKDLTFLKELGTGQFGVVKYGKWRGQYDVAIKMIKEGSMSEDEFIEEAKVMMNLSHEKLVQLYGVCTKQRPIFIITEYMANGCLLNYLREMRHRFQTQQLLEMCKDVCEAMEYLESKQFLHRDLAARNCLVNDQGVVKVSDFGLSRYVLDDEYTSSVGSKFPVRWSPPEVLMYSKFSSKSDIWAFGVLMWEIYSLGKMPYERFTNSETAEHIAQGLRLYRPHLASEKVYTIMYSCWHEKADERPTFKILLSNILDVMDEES

Broadly, the IC50 is the concentration at which inhibition is half-maximal. As to `CC1(O)CN(C(=O)N2CC=C(c3cc4c(-c5cccc(N6CCOc7cc(C8CC8)cc(F)c7C6=O)c5CO)ccnc4[nH]3)CC2)C1`, the concentration for half-maximal inhibition (IC50) came to 1.1 nM in data set [1] and 14.7 nM in data set [2]. The Drug metabolism is 0.04 nmol/min/mg in data set [3], 0.04 nmol/min/mg in data set [4] and under 0.04 nmol/min/mg in data set [5].

Regarding `CS(=O)(=O)N1CC=C(c2cc3c(-c4cccc(N5CCOc6cc(C7CC7)cc(F)c6C5=O)c4CO)ccnc3[nH]2)CC1`, the half-maximal inhibitory concentration (IC50) came to 5.5 nM in data set [1] and 17.7 nM in data set [2]. The Drug metabolism in data set [3] is listed as 0.09 nmol/min/mg; in data set [4], 0.05 nmol/min/mg; in data set [5], 0.07 nmol/min/mg.

Consider `CN1CCC(Oc2ccc(-c3cc4c(-c5cccc(N6CCOc7cc(C8CC8)ccc7C6=O)c5CO)ncnc4[nH]3)cc2)CC1`, for which the 50% inhibitory concentration (IC50) in data set [1] turned out to be 2.6 nM; in data set [2], 51 nM.

As for `CN1CCC(n2cc(-c3cc4c(-c5cccc(N6CCOc7cc(C8CC8)ccc7C6=O)c5CO)ncnc4[nH]3)cn2)CC1`, the half-inhibitory concentration (IC50) in data set [2] was determined as 32 nM.

On to `CN1CCN(Cc2ccc(-c3cc4c(-c5cccc(N6CCOc7cc(C8CC8)ccc7C6=O)c5CO)ncnc4[nH]3)cc2)CC1`, for which the concentration for half-maximal inhibition (IC50) in data set [1] amounted to 6.5 nM; in data set [2] it was 48 nM.

As to `CN(C)C(=O)N1CC=C(c2cc3c(-c4cccc(N5CCOc6cc(C7CC7)cc(F)c6C5=O)c4CO)ccnc3[nH]2)CC1`, in data set [2], the half-maximal inhibitory concentration (IC50) worked out at 5.8 nM. The Drug metabolism in data set [3], in data set [4] and in data set [5] was 0.05 nmol/min/mg in each case.

As to `CC1(O)CCN(Cc2ccc(-c3cc4c(-c5cccc(N6CCOc7cc(C8CC8)ccc7C6=O)c5CO)ncnc4[nH]3)cc2)CC1`, the IC50 in data set [1] came out at 6.8 nM; in data set [2] it was 81 nM.

`CN1CCN(Cc2ccc(-c3cc4c(-c5cccc(N6CCOc7cc(C8CC8)cc(F)c7C6=O)c5CO)ccnc4[nH]3)nc2)CC1`: the IC50 in data set [2] stood at 5.5 nM. In addition, the Drug metabolism in data set [3] was 0.06 nmol/min/mg; in data set [4], 0.15 nmol/min/mg; in data set [5], under 0.04 nmol/min/mg.

For orientation: thermodynamic solubility means solubility found after equilibrating the solid with the medium. As to `O=C1c2c(F)cc(C3CC3)cc2OCCN1c1cccc(-c2ccnc3[nH]c(-c4cnn(C5CCN(C6COC6)CC5)c4)cc23)c1CO`, the IC50 in data set [2] was 8.3 nM. Also, the Drug metabolism is given as 0.1 nmol/min/mg in data set [3], under 0.04 nmol/min/mg in data set [4] and 0.05 nmol/min/mg in data set [5]. Moreover, the values for the solubility (thermodynamic) in data set [6] and in data set [7] were under 100 µM and under 20 µM, respectively.

Regarding `N#CCC(=O)N1CC=C(c2cc3c(-c4cccc(N5CCOc6cc(C7CC7)cc(F)c6C5=O)c4CO)ccnc3[nH]2)CC1`, the IC50 in data set [2] worked out at 51.2 nM. The results for the Drug metabolism in data set [3], in data set [4] and in data set [5] were under 0.04 nmol/min/mg, under 0.04 nmol/min/mg and 0.07 nmol/min/mg, respectively.

In the case of `CN1CC(Oc2ccc(-c3cc4c(-c5cccc(N6CCOc7cc(C8CC8)ccc7C6=O)c5CO)ncnc4[nH]3)cc2)C1`, the figures for the half-inhibitory concentration (IC50) in data set [1] and in data set [2] were 5.1 nM and 54 nM, respectively.

With `Cc1c(-c2ncnc3[nH]c(-c4ccc(CN5CCN(C)CC5)cc4)cc23)cccc1N1CCOc2cc(C3CC3)ccc2C1=O`, in data set [1], the concentration for half-maximal inhibition (IC50) was found to be 21 nM.

Consider `O=C1c2ccc(C3CC3)cc2OCCN1c1cccc(-c2ncnc3[nH]c(-c4ccc(CN5CCOCC5)cc4)cc23)c1CO`, for which the half-inhibitory concentration (IC50) in data set [1] came to 8.3 nM; in data set [2], 59 nM.

Regarding `CC(C)(O)CN1CC=C(c2cc3c(-c4cccc(N5CCOc6cc(C7CC7)cc(F)c6C5=O)c4CO)ccnc3[nH]2)CC1`, the 50% inhibitory concentration (IC50) in data set [2] was determined as 75 nM. Besides, the results for the Drug metabolism in data set [3], in data set [4] and in data set [5] were 0.1 nmol/min/mg, 0.09 nmol/min/mg and 0.04 nmol/min/mg, respectively. The thermodynamic solubility in data set [6] is under 100 µM; in data set [7], under 20 µM.

In the case of `CN1CCN(c2ccc(-c3cc4c(-c5cccc(N6CCOc7cc(C8CC8)ccc7C6=O)c5CO)ncnc4[nH]3)cc2)CC1`, the IC50 in data set [2] is 36 nM.

Consider `CN1CCN(Cc2ccc(-c3cc4c(-c5cccc(N6CCOc7cc(C8CC8)ccc7C6=O)c5CO)ccnc4[nH]3)nc2)CC1`, for which the 50% inhibitory concentration (IC50) in data set [1] worked out at 5.4 nM; in data set [2], 14 nM.
